According to PubChem BioAssay AID1259407 (Chemical Carcinogenesis Research Information System (CCRIS), 2018):
Active and inactive are the calls of the source. The rule behind the calls is not given here.

Tested on: CCRIS mutagenicity, Ames/micronucleus/aberration tests
Assay: CCRIS mutagenicity studies
[1] = Test System: AMES SALMONELLA TYPHIMURIUM, Strain/Indicator: TA98, Metabolic Activation: NONE, Method: STANDARD PLATE
[2] = Test System: AMES SALMONELLA TYPHIMURIUM, Strain/Indicator: TA100, Metabolic Activation: NONE, Method: STANDARD PLATE
[3] = Test System: AMES SALMONELLA TYPHIMURIUM, Strain/Indicator: TA1535, Metabolic Activation: NONE, Method: STANDARD PLATE
[4] = Test System: AMES SALMONELLA TYPHIMURIUM, Strain/Indicator: TA1537, Metabolic Activation: NONE, Method: STANDARD PLATE
[5] = Test System: AMES SALMONELLA TYPHIMURIUM, Strain/Indicator: TA1538, Metabolic Activation: NONE, Method: STANDARD PLATE
[6] = Test System: AMES SALMONELLA TYPHIMURIUM, Strain/Indicator: TA98, Metabolic Activation: RAT, LIVER, S-9, AROCLOR 1254, Method: STANDARD PLATE
[7] = Test System: AMES SALMONELLA TYPHIMURIUM, Strain/Indicator: TA100, Metabolic Activation: NONE, Method: PREINCUBATION
[8] = Test System: AMES SALMONELLA TYPHIMURIUM, Strain/Indicator: TA100, Metabolic Activation: RAT, LIVER, S-9, AROCLOR 1254, Method: STANDARD PLATE

## CC(C)(C)CBr
Test System: AMES SALMONELLA TYPHIMURIUM, Strain/Indicator: TA97, Metabolic Activation: NONE, Method: STANDARD PLATE
  mutagenic call: inactive; negative
[1]
  mutagenic call: inactive; negative
Test System: AMES SALMONELLA TYPHIMURIUM, Strain/Indicator: TA98, Metabolic Activation: RAT, LIVER, S-9, AROCLOR, Method: STANDARD PLATE
  mutagenic call: inactive; negative
[2]
  mutagenic call: inactive; negative
Test System: AMES SALMONELLA TYPHIMURIUM, Strain/Indicator: TA100, Metabolic Activation: RAT, LIVER, S-9, AROCLOR, Method: STANDARD PLATE
  mutagenic call: inactive; negative
[3]
  mutagenic call: inactive; negative
[4]
  mutagenic call: inactive; negative
[5]
  mutagenic call: inactive; negative
Test System: AMES SALMONELLA TYPHIMURIUM, Strain/Indicator: TA2637, Metabolic Activation: NONE, Method: STANDARD PLATE
  mutagenic call: inactive; negative

## O=C(O)/C=C/c1ccccc1
Test System: AMES SALMONELLA TYPHIMURIUM, Strain/Indicator: TA98, Metabolic Activation: HAMSTER, LIVER, S-9, AROCLOR 1254 (2.5-20%), Method: PREINCUBATION
  mutagenic call: inactive; negative
Test System: AMES SALMONELLA TYPHIMURIUM, Strain/Indicator: TA98, Metabolic Activation: HAMSTER, LIVER, S-9, AROCLOR 1254, Method: STANDARD PLATE
  mutagenic call: inactive; negative
[1]
  mutagenic call: inactive; negative
[6]
  mutagenic call: inactive; negative
Test System: AMES SALMONELLA TYPHIMURIUM, Strain/Indicator: TA100, Metabolic Activation: HAMSTER, LIVER, S-9, AROCLOR 1254 (2.5-20%), Method: PREINCUBATION
  mutagenic call: inactive; negative
Test System: AMES SALMONELLA TYPHIMURIUM, Strain/Indicator: TA100, Metabolic Activation: HAMSTER, LIVER, S-9, AROCLOR 1254, Method: STANDARD PLATE
  mutagenic call: inactive; negative
[7]
  mutagenic call: inactive; negative
[2]
  mutagenic call: inactive; negative
Test System: AMES SALMONELLA TYPHIMURIUM, Strain/Indicator: TA100, Metabolic Activation: RAT, LIVER, S-9, AROCLOR 1254, Method: PREINCUBATION
  mutagenic call: inactive; negative
[8]
  mutagenic call: inactive; negative
Test System: AMES SALMONELLA TYPHIMURIUM, Strain/Indicator: TA102, Metabolic Activation: HAMSTER, LIVER, S-9, AROCLOR 1254, Method: PREINCUBATION
  mutagenic call: inactive; negative
Test System: AMES SALMONELLA TYPHIMURIUM, Strain/Indicator: TA102, Metabolic Activation: NONE, Method: PREINCUBATION
  mutagenic call: inactive; negative
Test System: AMES SALMONELLA TYPHIMURIUM, Strain/Indicator: TA102, Metabolic Activation: RAT, LIVER, S-9, AROCLOR 1254, Method: PREINCUBATION
  mutagenic call: inactive; negative
Test System: AMES SALMONELLA TYPHIMURIUM, Strain/Indicator: TA1535, Metabolic Activation: HAMSTER, LIVER, S-9, AROCLOR 1254, Method: STANDARD PLATE
  mutagenic call: inactive; negative
[3]
  mutagenic call: inactive; negative
Test System: AMES SALMONELLA TYPHIMURIUM, Strain/Indicator: TA1535, Metabolic Activation: RAT, LIVER, S-9, AROCLOR 1254, Method: STANDARD PLATE
  mutagenic call: inactive; negative
Test System: AMES SALMONELLA TYPHIMURIUM, Strain/Indicator: TA1537, Metabolic Activation: HAMSTER, LIVER, S-9, AROCLOR 1254, Method: STANDARD PLATE
  mutagenic call: inactive; negative
[4]
  mutagenic call: inactive; negative
Test System: AMES SALMONELLA TYPHIMURIUM, Strain/Indicator: TA1537, Metabolic Activation: RAT, LIVER, S-9, AROCLOR 1254, Method: STANDARD PLATE
  mutagenic call: inactive; negative
Test System: AMES SALMONELLA TYPHIMURIUM, Strain/Indicator: TA1538, Metabolic Activation: HAMSTER, LIVER, S-9, AROCLOR 1254, Method: STANDARD PLATE
  mutagenic call: inactive; negative
[5]
  mutagenic call: inactive; negative
Test System: AMES SALMONELLA TYPHIMURIUM, Strain/Indicator: TA1538, Metabolic Activation: RAT, LIVER, S-9, AROCLOR 1254, Method: STANDARD PLATE
  mutagenic call: inactive; negative
Test System: MOUSE LYMPHOMA, Strain/Indicator: L5178Y (TK+/TK-), Metabolic Activation: NONE, Method: SUSPENSION/PLATE
  mutagenic call: active; positive. reevaluation of results: equivocal
Test System: Mouse lymphoma, Strain/Indicator: L5178Y (tk+/tk-), Metabolic Activation: Rat, Liver, S-9, Aroclor 1254, Method: Suspension/plate
  mutagenic call: inactive; negative

## NC(=O)N(CCCC(=O)O)N=O
[7]
  mutagenic call: active; positive
Test System: AMES SALMONELLA TYPHIMURIUM, Strain/Indicator: TA1535, Metabolic Activation: NONE, Method: PREINCUBATION
  mutagenic call: active; positive
Test System: E. COLI B, Strain/Indicator: H/R30R, Metabolic Activation: NONE
  mutagenic call: active; positive
Test System: E. COLI B, Strain/Indicator: HS30R, Metabolic Activation: NONE
  mutagenic call: active; positive

## CC(C)(C)C1=CC(=CC=C2C=C(C(C)(C)C)C(=O)C(C(C)(C)C)=C2)C=C(C(C)(C)C)C1=O
Test System: AMES SALMONELLA TYPHIMURIUM, Strain/Indicator: TA98, Metabolic Activation: NONE, Method: PREINCUBATION
  mutagenic call: inactive; negative
Test System: AMES SALMONELLA TYPHIMURIUM, Strain/Indicator: TA98, Metabolic Activation: RAT, LIVER, S-9, Method: PREINCUBATION
  mutagenic call: inactive; negative
[7]
  mutagenic call: inactive; negative
Test System: AMES SALMONELLA TYPHIMURIUM, Strain/Indicator: TA100, Metabolic Activation: RAT, LIVER, S-9, Method: PREINCUBATION
  mutagenic call: inactive; negative

## CNC[C@H](O)[C@@H](O)[C@H](O)[C@H](O)CO.CNC[C@H](O)[C@@H](O)[C@H](O)[C@H](O)CO.O=C([O-])CN(CCN(CC(=O)[O-])CC(=O)[O-])CCN(CC(=O)[O-])[C@H](COCc1ccccc1)C(=O)[O-].[Gd+3].[H+].[H+]
[1]
  mutagenic call: inactive; negative
Test System: AMES SALMONELLA TYPHIMURIUM, Strain/Indicator: TA98, Metabolic Activation: RAT LIVER S-9, AROCLOR 1254 (10%), Method: STANDARD PLATE
  mutagenic call: inactive; negative
[2]
  mutagenic call: inactive; negative
Test System: AMES SALMONELLA TYPHIMURIUM, Strain/Indicator: TA100, Metabolic Activation: RAT LIVER S-9, AROCLOR 1254 (10%), Method: STANDARD PLATE
  mutagenic call: inactive; negative
[3]
  mutagenic call: inactive; negative
Test System: AMES SALMONELLA TYPHIMURIUM, Strain/Indicator: TA1535, Metabolic Activation: RAT LIVER S-9, AROCLOR 1254 (10%), Method: STANDARD PLATE
  mutagenic call: inactive; negative
[4]
  mutagenic call: inactive; negative
Test System: AMES SALMONELLA TYPHIMURIUM, Strain/Indicator: TA1537, Metabolic Activation: RAT LIVER S-9, AROCLOR 1254 (10%), Method: STANDARD PLATE
  mutagenic call: inactive; negative
[5]
  mutagenic call: inactive; negative
Test System: AMES SALMONELLA TYPHIMURIUM, Strain/Indicator: TA1538, Metabolic Activation: RAT LIVER S-9, AROCLOR 1254 (10%), Method: STANDARD PLATE
  mutagenic call: inactive; negative
Test System: ESCHERICHIA COLI, Strain/Indicator: WP2 UVR A-, Metabolic Activation: NONE, Method: STANDARD PLATE
  mutagenic call: inactive; negative
Test System: ESCHERICHIA COLI, Strain/Indicator: WP2 UVR A-, Metabolic Activation: RAT LIVER S-9, AROCLOR 1254 (10%), Method: STANDARD PLATE
  mutagenic call: inactive; negative

## O=C1Cc2cc3cc([N+](=O)[O-])ccc3cc2[C@H](O)[C@H]1O
[1]
  mutagenic call: inactive; negative
[6]
  mutagenic call: inactive; negative

## O=CNc1ccc(Oc2c(Cl)cc(Cl)cc2Cl)cc1
[2]
  mutagenic call: inactive; negative
Test System: AMES SALMONELLA TYPHIMURIUM, Strain/Indicator: TA100, Metabolic Activation: RAT, LIVER, S-9, KANECLOR 500, Method: STANDARD PLATE
  mutagenic call: active; positive

## c1ccc2c(c1)c1ccccc1c1cc3cnccc3cc21
[1]
  mutagenic call: inactive; negative
Test System: AMES SALMONELLA TYPHIMURIUM, Strain/Indicator: TA98, Metabolic Activation: RAT, LIVER, S-9, AROCLOR 1254 (10%), Method: STANDARD PLATE
  mutagenic call: active; positive
[6]
  mutagenic call: active; positive
[2]
  mutagenic call: inactive; negative
Test System: AMES SALMONELLA TYPHIMURIUM, Strain/Indicator: TA100, Metabolic Activation: RAT, LIVER, S-9, AROCLOR 1254 (10%), Method: STANDARD PLATE
  mutagenic call: active; positive
[8]
  mutagenic call: active; positive

## O=Cc1cc(=O)[nH]c(=O)[nH]1
Test System: CHINESE HAMSTER V-79, Strain/Indicator: V-79 (HPRT)/6-THIOGUANINE, Metabolic Activation: NONE, Method: STANDARD PLATE
  mutagenic call: active; positive
